In article PMC9149975, “The diaryl-imidazopyridazine anti-plasmodial compound, MMV652103, exhibits anti-breast cancer activity” (EXCLI Journal, 2022):

Tests used:
PI4K2B = biological target: T1, PI4K2B (Homo sapiens, UniProt Q8TCG2); assay: ADP-Glo lipid kinase assay, PI4K2B; assay type: biochemical; details: 10 µM compound
T1 construct: purchased Carna Biosciences Inc; Invitrogen Corporation

T47D cells [1] = assay: Scratch motility assay, T47D; assay type: cell-based, human; details: IC50 and 2 x IC50; 3, 6, 9 h
Protocol: Cells were grown to 100 % confluence in 12-well tissue culture plates and the following day a sterile 2 µl pipette tip was used to make a vertical scratch in the cell monolayer of each well and the cells treated with mitomycin C (M4287; Sigma Aldrich) at a final concentration of 10 μg/ml to inhibit proliferation. Cells were subsequently treated with MMV652103 or vehicle and imaged at 0, 3, 6 and 9 h post wound formation and ImageJ v1.50i software was used to calculate the area of the scratch (Schneider et al., 2012[73]). The total areas migrated was determined by subtracting the area for a specific time point from the area measured at 0 h.

PIK3CG = biological target: T2, PIK3CG (Homo sapiens, UniProt P48736); assay: ADP-Glo lipid kinase assay, PIK3CG; assay type: biochemical; details: 10 µM compound
T2 construct: purchased Carna Biosciences Inc; Invitrogen Corporation

PIK3C2A = biological target: T3, PIK3C2A (Homo sapiens, UniProt O00443); assay: ADP-Glo lipid kinase assay, PIK3C2A; assay type: biochemical; details: 10 µM compound
T3 construct: purchased Carna Biosciences Inc; Invitrogen Corporation

T47D cells [2] = assay: Western blotting / immunofluorescence, T47D; assay type: cell-based, human
Protocol: (§1) Cells were exposed to MMV652103 or vehicle for 24 and 48 h. Cell lysates were prepared, and western blotting performed as previously described (Abrahams et al., 2008[1]). Primary antibodies were: PARP1/2 (sc-7150, 1:1000), p53 (sc-126, 1:1000), p21 (sc-756, 1:1000), cyclin B1 (H-433) (sc-752, 1:500) from Santa Cruz (California, USA), phospho-H2AX (#2577, 1:1000), phospho-p38 MAP Kinase (#9211, 1:1000), LC3 (#2775, 1:1000), caspase-7 (#9492, 1:1000), caspase-8 (#9746, 1:1000), caspase-9 (#9502S, 1:1000), from Cell Signaling (Boston, MA, USA), PUMA (ab9643, 1:1000) (AbCam, Cambridge, MA, USA) and p38 (M0800, 1:5000) from Sigma (St. Louis, MO, USA). Total p38 was used as a loading control because although its activity is modulated by phosphorylation, its total levels remain unaltered in response to stimuli (Raingeaud et al., 1995[68]). Densitometry readings were obtained using ImageJ v1.50i58 and protein expression levels were represented as a ratio of protein of interest/p38 loading control normalized to the vehicle treated control sample where appropriate. All blots are representative of at least three independent experiments.
(§2) Cells on glass coverslips were treated with either MMV652103 or vehicle for 24 and 48 h and processed for immunofluorescence with antibodies against phospho H2A.X (#2577) (1:500) or LC3B (#2775) (1:200) (Cell Signaling Technology) as previously described (Bleloch et al., 2019[8]). Cells were imaged using confocal microscopy (Carl Zeiss LSM 880 with Fast Airyscan module confocal (Oberkochen, Germany)). Multiple z layers were acquired with […] step width. Images were processed using ZEN 2012 imaging software (Carl Zeiss) and maximum intensity projections were generated. For quantification, mean fluorescence was measured from at least 20 fields of view per treatment condition and pooled from three independent replicates.

PI4K2A = biological target: T4, PI4K2A (Homo sapiens, UniProt Q9BTU6); assay: ADP-Glo lipid kinase assay, PI4K2A; assay type: biochemical; details: 10 µM compound
T4 construct: purchased Carna Biosciences Inc; Invitrogen Corporation

MCF7 cells = assay: Western blotting / immunofluorescence, MCF7; assay type: cell-based, human
Protocol: as §1, §2

PIK3C3 = biological target: T5, PIK3C3 (Homo sapiens, UniProt Q8NEB9); assay: ADP-Glo lipid kinase assay, PIK3C3; assay type: biochemical; details: 10 µM compound
T5 construct: purchased Carna Biosciences Inc; Invitrogen Corporation
T5 sequence (Q8NEB9 whole entry): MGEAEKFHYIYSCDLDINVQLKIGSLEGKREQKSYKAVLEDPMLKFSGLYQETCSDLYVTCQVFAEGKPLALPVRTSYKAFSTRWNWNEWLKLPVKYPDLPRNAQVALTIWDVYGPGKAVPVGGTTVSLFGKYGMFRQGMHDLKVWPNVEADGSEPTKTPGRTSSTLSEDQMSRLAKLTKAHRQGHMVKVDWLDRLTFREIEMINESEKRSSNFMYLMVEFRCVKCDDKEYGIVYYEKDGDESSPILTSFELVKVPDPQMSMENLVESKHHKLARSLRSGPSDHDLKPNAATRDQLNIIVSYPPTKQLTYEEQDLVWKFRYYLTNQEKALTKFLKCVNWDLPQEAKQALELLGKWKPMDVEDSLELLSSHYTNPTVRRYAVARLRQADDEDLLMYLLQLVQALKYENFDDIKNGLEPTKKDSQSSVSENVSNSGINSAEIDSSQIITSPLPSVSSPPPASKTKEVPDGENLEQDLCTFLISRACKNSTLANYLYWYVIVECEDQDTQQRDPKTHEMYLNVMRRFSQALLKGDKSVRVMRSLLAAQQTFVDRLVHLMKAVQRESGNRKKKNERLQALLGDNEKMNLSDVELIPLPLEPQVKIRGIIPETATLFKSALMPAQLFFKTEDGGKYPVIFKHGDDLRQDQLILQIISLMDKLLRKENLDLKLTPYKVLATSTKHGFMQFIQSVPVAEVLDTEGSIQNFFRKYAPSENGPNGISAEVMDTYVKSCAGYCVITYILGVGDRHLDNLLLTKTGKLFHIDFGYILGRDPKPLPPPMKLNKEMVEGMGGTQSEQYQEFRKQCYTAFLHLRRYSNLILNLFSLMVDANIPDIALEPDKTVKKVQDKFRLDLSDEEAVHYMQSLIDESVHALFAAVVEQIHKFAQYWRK

T1 sequence (Q8TCG2 whole entry): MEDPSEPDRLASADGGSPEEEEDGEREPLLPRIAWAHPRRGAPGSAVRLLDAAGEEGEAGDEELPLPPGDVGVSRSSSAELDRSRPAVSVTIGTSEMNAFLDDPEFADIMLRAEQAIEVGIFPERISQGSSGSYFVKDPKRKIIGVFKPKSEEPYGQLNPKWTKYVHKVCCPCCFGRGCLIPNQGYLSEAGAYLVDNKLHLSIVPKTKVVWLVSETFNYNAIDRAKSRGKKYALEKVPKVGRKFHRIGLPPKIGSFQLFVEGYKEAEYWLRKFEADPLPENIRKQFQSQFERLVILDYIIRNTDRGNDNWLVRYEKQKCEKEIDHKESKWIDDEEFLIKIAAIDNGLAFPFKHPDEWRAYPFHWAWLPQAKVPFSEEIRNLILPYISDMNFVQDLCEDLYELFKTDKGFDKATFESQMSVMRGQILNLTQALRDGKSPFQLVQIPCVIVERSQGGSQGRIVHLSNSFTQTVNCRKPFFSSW
T2 sequence (P48736 whole entry): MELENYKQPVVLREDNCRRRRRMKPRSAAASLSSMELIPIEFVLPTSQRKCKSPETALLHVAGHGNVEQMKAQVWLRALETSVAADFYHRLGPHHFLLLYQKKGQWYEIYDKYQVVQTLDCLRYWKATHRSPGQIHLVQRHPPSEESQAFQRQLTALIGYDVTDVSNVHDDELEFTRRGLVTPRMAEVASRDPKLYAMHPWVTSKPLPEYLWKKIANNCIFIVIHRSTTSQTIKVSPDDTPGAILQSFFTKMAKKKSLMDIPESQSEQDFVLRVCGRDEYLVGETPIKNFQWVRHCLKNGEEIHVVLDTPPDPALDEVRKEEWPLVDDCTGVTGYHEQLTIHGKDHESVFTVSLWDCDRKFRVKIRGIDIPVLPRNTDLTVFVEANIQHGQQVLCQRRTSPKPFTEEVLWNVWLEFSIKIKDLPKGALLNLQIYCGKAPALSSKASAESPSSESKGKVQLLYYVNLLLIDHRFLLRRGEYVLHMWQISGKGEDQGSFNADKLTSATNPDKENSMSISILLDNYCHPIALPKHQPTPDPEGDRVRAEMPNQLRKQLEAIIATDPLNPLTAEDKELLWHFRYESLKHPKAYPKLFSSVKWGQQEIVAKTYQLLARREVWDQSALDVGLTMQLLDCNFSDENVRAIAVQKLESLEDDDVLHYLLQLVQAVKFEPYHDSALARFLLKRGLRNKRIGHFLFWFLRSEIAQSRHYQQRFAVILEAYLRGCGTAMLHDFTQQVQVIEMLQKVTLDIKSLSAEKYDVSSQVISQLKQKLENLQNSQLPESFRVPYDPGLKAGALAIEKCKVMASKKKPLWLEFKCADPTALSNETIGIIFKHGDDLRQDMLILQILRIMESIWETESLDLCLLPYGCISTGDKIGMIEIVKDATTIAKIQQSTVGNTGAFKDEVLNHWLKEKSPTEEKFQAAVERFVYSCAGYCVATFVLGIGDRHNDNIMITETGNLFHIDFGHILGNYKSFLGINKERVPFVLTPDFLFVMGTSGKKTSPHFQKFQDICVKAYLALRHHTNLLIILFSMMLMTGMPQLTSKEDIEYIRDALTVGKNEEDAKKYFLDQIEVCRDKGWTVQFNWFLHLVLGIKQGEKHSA
T4 sequence (Q9BTU6 whole entry): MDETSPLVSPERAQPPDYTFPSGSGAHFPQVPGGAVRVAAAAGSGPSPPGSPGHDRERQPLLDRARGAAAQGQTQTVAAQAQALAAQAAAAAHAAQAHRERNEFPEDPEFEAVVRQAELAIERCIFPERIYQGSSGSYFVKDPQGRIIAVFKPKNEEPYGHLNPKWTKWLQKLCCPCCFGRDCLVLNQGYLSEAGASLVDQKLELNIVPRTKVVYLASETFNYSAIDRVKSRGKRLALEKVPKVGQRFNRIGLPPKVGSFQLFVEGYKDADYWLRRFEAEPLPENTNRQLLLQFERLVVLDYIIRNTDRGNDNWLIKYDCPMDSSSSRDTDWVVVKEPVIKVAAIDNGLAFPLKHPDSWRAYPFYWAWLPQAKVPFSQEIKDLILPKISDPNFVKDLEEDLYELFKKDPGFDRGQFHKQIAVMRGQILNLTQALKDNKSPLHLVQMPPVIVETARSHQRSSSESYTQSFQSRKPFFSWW
T3 sequence (O00443 whole entry): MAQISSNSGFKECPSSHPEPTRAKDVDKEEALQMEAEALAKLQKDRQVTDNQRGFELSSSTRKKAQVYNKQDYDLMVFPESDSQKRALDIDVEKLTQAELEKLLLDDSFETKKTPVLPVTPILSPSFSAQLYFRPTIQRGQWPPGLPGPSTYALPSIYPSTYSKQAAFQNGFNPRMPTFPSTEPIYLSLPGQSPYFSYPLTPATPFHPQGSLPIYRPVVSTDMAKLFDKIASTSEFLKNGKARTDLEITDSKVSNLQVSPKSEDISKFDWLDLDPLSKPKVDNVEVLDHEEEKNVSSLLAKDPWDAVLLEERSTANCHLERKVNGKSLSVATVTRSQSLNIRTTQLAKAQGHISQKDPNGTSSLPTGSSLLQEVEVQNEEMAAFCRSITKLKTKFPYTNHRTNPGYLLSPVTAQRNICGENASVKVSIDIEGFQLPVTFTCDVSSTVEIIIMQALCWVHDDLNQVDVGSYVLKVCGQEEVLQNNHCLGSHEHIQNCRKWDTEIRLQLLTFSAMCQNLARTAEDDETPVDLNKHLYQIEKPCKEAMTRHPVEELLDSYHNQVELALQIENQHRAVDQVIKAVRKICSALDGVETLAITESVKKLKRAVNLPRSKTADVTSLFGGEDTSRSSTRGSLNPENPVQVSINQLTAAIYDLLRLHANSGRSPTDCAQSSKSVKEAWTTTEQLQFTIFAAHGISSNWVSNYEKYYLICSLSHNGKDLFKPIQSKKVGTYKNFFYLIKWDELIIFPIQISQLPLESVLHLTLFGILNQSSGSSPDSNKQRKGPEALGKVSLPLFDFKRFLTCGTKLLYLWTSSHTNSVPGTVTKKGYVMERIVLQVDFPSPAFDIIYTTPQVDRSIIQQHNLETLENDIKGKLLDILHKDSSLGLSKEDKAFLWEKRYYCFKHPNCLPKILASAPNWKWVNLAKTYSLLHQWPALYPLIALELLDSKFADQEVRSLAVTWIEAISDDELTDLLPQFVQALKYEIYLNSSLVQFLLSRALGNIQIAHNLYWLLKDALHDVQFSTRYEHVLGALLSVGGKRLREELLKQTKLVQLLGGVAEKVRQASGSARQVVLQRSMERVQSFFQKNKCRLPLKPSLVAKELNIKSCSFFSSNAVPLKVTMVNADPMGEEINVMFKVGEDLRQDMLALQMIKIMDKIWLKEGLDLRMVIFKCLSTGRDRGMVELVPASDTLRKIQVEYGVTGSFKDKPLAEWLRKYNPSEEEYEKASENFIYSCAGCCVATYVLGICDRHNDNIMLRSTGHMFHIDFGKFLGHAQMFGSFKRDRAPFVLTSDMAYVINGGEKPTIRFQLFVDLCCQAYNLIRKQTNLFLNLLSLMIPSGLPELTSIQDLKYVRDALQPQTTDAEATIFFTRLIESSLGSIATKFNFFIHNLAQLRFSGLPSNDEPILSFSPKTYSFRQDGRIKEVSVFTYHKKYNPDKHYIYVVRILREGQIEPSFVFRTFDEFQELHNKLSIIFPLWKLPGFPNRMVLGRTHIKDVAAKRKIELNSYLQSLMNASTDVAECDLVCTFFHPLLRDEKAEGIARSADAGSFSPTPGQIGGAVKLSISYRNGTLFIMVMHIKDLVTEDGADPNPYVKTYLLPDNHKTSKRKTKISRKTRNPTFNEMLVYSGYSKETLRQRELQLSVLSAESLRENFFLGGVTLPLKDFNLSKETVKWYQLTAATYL

For CS(=O)(=O)c1ccc(-c2cnc3ccc(-c4cccc(S(C)(=O)=O)c4)nn23)cc1 [MMV652103], the remaining activity at 10 µM (PI4K2B) was 50%, the T47D cell migration (T47D cells [1]) was “significant reduction” and the remaining activity at 10 µM (PIK3CG) was 2%. For the same compound, the remaining activity at 10 µM (PIK3C2A) was 39%, the “levels of phosphorylated p38, T47D” value (T47D cells [2]; western blot) was “increased” and the “p21 levels, T47D” value (T47D cells [2]; western blot) was “increased”. The “levels of p53, T47D” value (T47D cells [2]; western blot, mutant non-functional p53) was “no effect”, the “levels of γH2AX, T47D” value (T47D cells [2]; ½ IC50 and IC50, 24 and 48 h) was “dose- and time-dependent increase” and the remaining activity at 10 µM (PI4K2A) was 42%. For the same compound, the “LC3 to LC3II conversion” value (MCF7 cells; western blot) was “led to the conversion of LC3 to LC3II”, the “cyclin A and cyclin B1 levels” value (MCF7 cells; western blot) was “reduced” and the “levels of p53, MCF7” value (MCF7 cells; western blot) was “dose- and time-dependent increase”. For the same compound, the “levels of phosphorylated p38, MCF7” value (MCF7 cells; western blot) was “increased”, the “p21 levels, MCF7” value (MCF7 cells; western blot) was “increased” and the “levels of γH2AX, MCF7” value (MCF7 cells; ½ IC50 and IC50, 24 and 48 h) was “dose- and time-dependent increase”. For the same compound, the “levels of PUMA, cleaved caspase-8, caspase-9, caspase-7 and PARP” value (MCF7 cells; ½ IC50 and IC50, western blot) was “increased levels” and the remaining activity at 10 µM (PIK3C3) was 24%.
